Source: the supplement of paper PMC10307832

Experiments:
Assay in all cases: relative viability (nuclei count vs DMSO), 5 days (fraction); higher = more cells survive
[1] = compound: C(C(=O)C(=O)O)Br [Bromopyruvate] + Cc1cc(Nc2cc(N3CCN(C)CC3)nc(Sc3ccc(NC(=O)C4CC4)cc3)n2)n[nH]1 [Tozasertib] (partner 0.1 µM)
Summary of the method: (§1)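 A single step with final 0.05% Triton X-100, 1% formaldehyde and 1 ug/ml Hoechst fixed the cells and stained nuclei 5 days after treatment. Lung cancer cell lines in 1536-well plates had been treated by pin tool the day after seeding with one drug alone or a fixed anchor-drug dose plus five library-drug doses (not always all listed) in √10 steps, and nuclei were counted on 4× images. Relative viability is the ratio of nuclei in treated wells to nuclei in vehicle wells, taken as the median of duplicate plates.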

[2] = compound: CC(O)(CS(=O)(=O)c1ccc(F)cc1)C(=O)Nc1ccc(C#N)c(C(F)(F)F)c1 [Bicalutamide] + C[C@@H](Oc1cc(-c2cnn(C3CCNCC3)c2)cnc1N)c1c(Cl)ccc(F)c1Cl [Crizotinib] (partner 1 µM)
Summary of the method: as §1

[3] = compound: CC(O)(CS(=O)(=O)c1ccc(F)cc1)C(=O)Nc1ccc(C#N)c(C(F)(F)F)c1 [Bicalutamide] + Nc1nc2[nH]cc(CCc3ccc(C(=O)N[C@@H](CCC(=O)O)C(=O)O)cc3)c2c(=O)[nH]1 [Pemetrexed] (partner 0.2 µM)
Summary of the method: as §1

[4] = compound: CC(O)(CS(=O)(=O)c1ccc(F)cc1)C(=O)Nc1ccc(C#N)c(C(F)(F)F)c1 [Bicalutamide] + CC1(C)CCC(c2ccc(Cl)cc2)=C(CN2CCN(c3ccc(C(=O)NS(=O)(=O)c4ccc(N[C@H](CCN5CCOCC5)CSc5ccccc5)c(S(=O)(=O)C(F)(F)F)c4)cc3)CC2)C1 [Navitoclax] (partner 0.5 µM)
Summary of the method: as §1

Cell Line | relative viability ([1]; first compound 1 µM) | relative viability ([1]; first compound 3.162 µM) | relative viability ([1]; first compound 10 µM) | relative viability ([1]; first compound 31.62 µM) | relative viability ([1]; first compound 100 µM) | relative viability ([2]; first compound 0.08 µM) | relative viability ([2]; first compound 0.253 µM) | relative viability ([2]; first compound 0.8 µM) | relative viability ([2]; first compound 2.53 µM) | relative viability ([3]; first compound 0.08 µM) | relative viability ([3]; first compound 0.253 µM) | relative viability ([3]; first compound 0.8 µM) | relative viability ([3]; first compound 2.53 µM) | relative viability ([4]; first compound 0.08 µM) | relative viability ([4]; first compound 0.253 µM) | relative viability ([4]; first compound 0.8 µM) | relative viability ([4]; first compound 2.53 µM)
ABC-1 | 0.178 | 0.195 | 0.155 | 0.146 | 0.166 | 1.15 | 1.09 | 1.16 | 0.848 | – | – | – | – | – | – | – | –
SW 900 | 0.54 | 0.455 | 0.44 | 0.564 | 0.514 | – | – | – | – | 0.444 | 0.47 | 0.562 | 0.467 | – | – | – | –
PC-14 | 0.598 | 0.566 | 0.633 | 0.633 | 0.628 | 0.958 | 0.972 | 0.899 | 0.904 | 0.121 | 0.121 | 0.119 | 0.117 | 0.948 | 0.944 | 1.02 | 1.08
NCI-H1648 | 0.514 | 0.573 | 0.412 | 0.522 | 0.613 | – | – | – | – | – | – | 0.745 | 0.774 | – | – | – | –
A549 | – | – | – | – | – | 0.738 | 0.708 | 0.917 | 0.485 | – | – | – | – | 1.33 | 1.16 | 1.36 | 1.08
A-427 | 0.22 | 0.216 | 0.176 | 0.162 | 0.151 | 0.934 | 0.967 | 0.915 | 0.804 | 0.986 | 0.968 | 1.11 | 0.913 | 0.986 | 1.03 | 0.98 | 0.927
NCI-H1792 | – | – | – | – | – | 0.922 | 0.888 | 1.02 | 1.02 | 0.825 | 0.658 | 1.16 | 0.831 | 0.5 | 0.619 | 0.77 | 0.674
LCLC-97TM1 | 0.195 | 0.206 | 0.212 | 0.182 | 0.128 | 0.478 | 0.369 | 0.317 | 0.301 | 0.169 | 0.173 | 0.203 | 0.181 | 0.558 | 0.379 | 0.573 | 0.572
NCI-H1703 | – | – | – | – | – | 0.621 | 0.511 | 0.624 | 0.397 | – | – | – | – | 0.998 | 0.985 | 1.45 | 0.484
LCLC-103H | 0.515 | 0.446 | 0.466 | 0.466 | 0.544 | 1.06 | 1.04 | 1 | 1.02 | 0.446 | 0.408 | 0.469 | 0.462 | – | – | – | –
RERF-LC-KJ | 0.508 | 0.491 | 0.433 | 0.517 | 0.413 | 0.874 | 0.849 | 0.872 | 0.855 | 0.471 | 0.457 | 0.517 | 0.492 | 0.951 | 0.98 | 0.793 | 0.799
BEN | 0.556 | 0.558 | 0.426 | 0.499 | 0.402 | 0.773 | 0.778 | 1.14 | 0.866 | 0.854 | 0.74 | 1.15 | 0.837 | 0.0525 | 0.0535 | 0.0851 | 0.0653
